± gives the expanded uncertainty stated by the source.
Assay: mn = molality of the nth substance listed, in mol/kg
Details: 100 kPa, Liquid; for viscosity: Capillary tube (Ostwald / Ubbelohde) method; for electrical conductivity: Direct current cell with electrodes; for mass density: Vibrating tube method

CCCCn1cc[n+](C)c1.NCCS(=O)(=O)[O-] [1-butyl-3-methylimidazolium taurate] + O
Details | electrical conductivity [S/m] | mass density [kg/m3] | viscosity [mPa·s]
293.15 K, m1 = 0.00165 | 0.0072 ± 0.0008 | – | –
293.15 K, m1 = 0.00227 | 0.0097 ± 0.0008 | – | –
293.15 K, m1 = 0.00341 | 0.0142 ± 0.0009 | – | –
293.15 K, m1 = 0.00511 | 0.0205 ± 0.001 | 998.36 ± 1.6 | –
293.15 K, m1 = 0.00752 | 0.0293 ± 0.0011 | 998.46 ± 1.6 | –
293.15 K, m1 = 0.00917 | – | 998.52 ± 1.6 | –
293.15 K, m1 = 0.01078 | 0.0403 ± 0.0014 | 998.59 ± 1.6 | 1.034 ± 0.022
293.15 K, m1 = 0.01261 | 0.0464 ± 0.0015 | 998.67 ± 1.6 | 1.038 ± 0.022
293.15 K, m1 = 0.01552 | 0.0552 ± 0.0018 | 998.81 ± 1.6 | 1.043 ± 0.022
293.15 K, m1 = 0.01938 | 0.0668 ± 0.0021 | 999 ± 1.6 | 1.05 ± 0.022
293.15 K, m1 = 0.02239 | 0.0757 ± 0.0023 | 999.16 ± 1.6 | –
293.15 K, m1 = 0.02555 | – | 999.33 ± 1.6 | 1.06 ± 0.022
293.15 K, m1 = 0.02746 | – | 999.43 ± 1.6 | –
293.15 K, m1 = 0.03626 | – | – | 1.074 ± 0.022
293.15 K, m1 = 0.05001 | – | – | 1.093 ± 0.023
293.15 K, m1 = 0.0693 | – | – | 1.117 ± 0.023
293.15 K, m1 = 0.08462 | – | – | 1.133 ± 0.024
298.15 K, m1 = 0.00165 | 0.0089 ± 0.0011 | – | –
298.15 K, m1 = 0.00227 | 0.0121 ± 0.0011 | – | –
298.15 K, m1 = 0.00341 | 0.0177 ± 0.0011 | – | –
298.15 K, m1 = 0.00511 | 0.0257 ± 0.0012 | 997.16 ± 1.6 | –
298.15 K, m1 = 0.00752 | 0.0365 ± 0.0014 | 997.24 ± 1.6 | –
298.15 K, m1 = 0.00917 | – | 997.3 ± 1.6 | –
298.15 K, m1 = 0.01078 | 0.0498 ± 0.0017 | 997.36 ± 1.6 | 0.925 ± 0.019
298.15 K, m1 = 0.01261 | 0.0571 ± 0.0019 | 997.43 ± 1.6 | 0.928 ± 0.019
298.15 K, m1 = 0.01552 | 0.0684 ± 0.0022 | 997.56 ± 1.6 | 0.934 ± 0.019
298.15 K, m1 = 0.01938 | 0.0824 ± 0.0026 | 997.74 ± 1.6 | 0.94 ± 0.02
298.15 K, m1 = 0.02239 | 0.0922 ± 0.0028 | 997.89 ± 1.6 | –
298.15 K, m1 = 0.02555 | – | 998.06 ± 1.6 | 0.95 ± 0.02
298.15 K, m1 = 0.02746 | – | 998.16 ± 1.6 | –
298.15 K, m1 = 0.03626 | – | – | 0.965 ± 0.02
298.15 K, m1 = 0.05001 | – | – | 0.981 ± 0.02
298.15 K, m1 = 0.0693 | – | – | 1.004 ± 0.021
298.15 K, m1 = 0.08462 | – | – | 1.018 ± 0.021
303.15 K, m1 = 0.00165 | 0.0104 ± 0.0012 | – | –
303.15 K, m1 = 0.00227 | 0.0141 ± 0.0012 | – | –
303.15 K, m1 = 0.00341 | 0.0206 ± 0.0013 | – | –
303.15 K, m1 = 0.00511 | 0.0299 ± 0.0014 | 995.73 ± 1.6 | –
303.15 K, m1 = 0.00752 | 0.0425 ± 0.0016 | 995.79 ± 1.6 | –
303.15 K, m1 = 0.00917 | – | 995.83 ± 1.6 | –
303.15 K, m1 = 0.01078 | 0.0587 ± 0.002 | 995.88 ± 1.6 | 0.835 ± 0.017
303.15 K, m1 = 0.01261 | 0.0675 ± 0.0022 | 995.94 ± 1.6 | 0.838 ± 0.017
303.15 K, m1 = 0.01552 | 0.0805 ± 0.0026 | 996.06 ± 1.6 | 0.844 ± 0.018
303.15 K, m1 = 0.01938 | 0.0965 ± 0.003 | 996.22 ± 1.6 | 0.85 ± 0.018
303.15 K, m1 = 0.02239 | 0.107 ± 0.0033 | 996.37 ± 1.6 | –
303.15 K, m1 = 0.02555 | – | 996.53 ± 1.6 | 0.86 ± 0.018
303.15 K, m1 = 0.02746 | – | 996.63 ± 1.6 | –
303.15 K, m1 = 0.03626 | – | – | 0.874 ± 0.018
303.15 K, m1 = 0.05001 | – | – | 0.89 ± 0.019
303.15 K, m1 = 0.0693 | – | – | 0.911 ± 0.019
303.15 K, m1 = 0.08462 | – | – | 0.925 ± 0.019
308.15 K, m1 = 0.00165 | 0.0119 ± 0.0014 | – | –
308.15 K, m1 = 0.00227 | 0.0161 ± 0.0014 | – | –
308.15 K, m1 = 0.00341 | 0.0237 ± 0.0015 | – | –
308.15 K, m1 = 0.00511 | 0.0344 ± 0.0016 | 994.08 ± 1.6 | –
308.15 K, m1 = 0.00752 | 0.0488 ± 0.0019 | 994.12 ± 1.6 | –
308.15 K, m1 = 0.00917 | – | 994.15 ± 1.6 | –
308.15 K, m1 = 0.01078 | 0.067 ± 0.0023 | 994.19 ± 1.6 | 0.76 ± 0.016
308.15 K, m1 = 0.01261 | 0.0772 ± 0.0025 | 994.24 ± 1.6 | 0.764 ± 0.016
308.15 K, m1 = 0.01552 | 0.092 ± 0.0029 | 994.34 ± 1.6 | 0.77 ± 0.016
308.15 K, m1 = 0.01938 | 0.111 ± 0.0035 | 994.48 ± 1.6 | 0.776 ± 0.016
308.15 K, m1 = 0.02239 | 0.123 ± 0.0038 | 994.63 ± 1.6 | –
308.15 K, m1 = 0.02555 | – | 994.78 ± 1.6 | 0.786 ± 0.016
308.15 K, m1 = 0.02746 | – | 994.88 ± 1.6 | –
308.15 K, m1 = 0.03626 | – | – | 0.801 ± 0.017
308.15 K, m1 = 0.05001 | – | – | 0.817 ± 0.017
308.15 K, m1 = 0.0693 | – | – | 0.837 ± 0.017
308.15 K, m1 = 0.08462 | – | – | 0.851 ± 0.018
313.15 K, m1 = 0.00165 | 0.0135 ± 0.0016 | – | –
313.15 K, m1 = 0.00227 | 0.0182 ± 0.0016 | – | –
313.15 K, m1 = 0.00341 | 0.0265 ± 0.0016 | – | –
313.15 K, m1 = 0.00511 | 0.0385 ± 0.0018 | 992.21 ± 1.6 | –
313.15 K, m1 = 0.00752 | 0.0544 ± 0.0021 | 992.23 ± 1.6 | –
313.15 K, m1 = 0.00917 | – | 992.26 ± 1.6 | –
313.15 K, m1 = 0.01078 | 0.0749 ± 0.0026 | 992.29 ± 1.6 | 0.698 ± 0.015
313.15 K, m1 = 0.01261 | 0.0858 ± 0.0028 | 992.34 ± 1.6 | 0.702 ± 0.015
313.15 K, m1 = 0.01552 | 0.102 ± 0.0032 | 992.42 ± 1.6 | 0.708 ± 0.015
313.15 K, m1 = 0.01938 | 0.121 ± 0.0038 | 992.55 ± 1.6 | 0.715 ± 0.015
313.15 K, m1 = 0.02239 | 0.134 ± 0.0041 | 992.67 ± 1.6 | –
313.15 K, m1 = 0.02555 | – | 992.8 ± 1.6 | 0.725 ± 0.015
313.15 K, m1 = 0.02746 | – | 992.88 ± 1.6 | –
313.15 K, m1 = 0.03626 | – | – | 0.74 ± 0.015
313.15 K, m1 = 0.05001 | – | – | 0.757 ± 0.016
313.15 K, m1 = 0.0693 | – | – | 0.779 ± 0.016
313.15 K, m1 = 0.08462 | – | – | 0.793 ± 0.017
